This is an account of results in publication PMC10298982, “Stability Characterization of the Novel Anti-Cancer HM-10/10 HDL-Mimetic Peptide” (International Journal of Molecular Sciences, 2023).

One data set relates to CYP1A2. As to the kind of experiment: CYP1A2 induction (mRNA expression) in single-donor human hepatocytes. Format: in vitro ADME. The following applies: 50 µM (control). As to the method: RNA isolation and quantification: E-Z 96 Total RNA Kit (Omega Bio-tek, Catalog No. R1034-02) was used for RNA isolation and Quant-iT RNA assay kit (ThermoFisher, Catalog No. Q33140) was used for RNA quantification. The plates were removed from a −80 °C freezer and equilibrated to room temperature. RNA was extracted using the manufacturer’s recommended protocol. Eighty-one microliters of 100% ethanol were added into each well containing 150 µL of lysed sample to make a final ethanol concentration at 35%.
cDNA generation: For cDNA generation, a High-Capacity cDNA Reverse Transcription Kit (Applied Biosystems, Catalog No. 4319983) and QuantStudio 3 PCR system (Applied Biosystems) were used. In this step, 2X Reverse Transcription Master Mix was prepared using the contents of the kit. Then, 10 µL of total RNA was added to 10 µL of 2X Reverse Transcription Master Mix in a microplate and the plate was sealed. This plate was then run in a thermocycler to generate cDNA.
Real time PCR: SsoAdvanced Universal SYBR® Green Supermix (BIO-RAD, Catalog No. 172-5270) and the QuantStudio 3 Real-Time PCR system (Applied Biosystems) were used to perform real-time PCR on the generated cDNA. In this step, a PCR mix was prepared using PCR Supermix, SYBR® primers for the targeted genes, and nuclease-free water. Two microliters of ten-fold diluted cDNA samples (5 µL of cDNA into 45 μL of nuclease-free water) were added to 8 µL of PCR Mix in a microplate and sealed. This plate was then run through the Real-Time PCR system to generate the mRNA expression data.
• Human GAPDH • F: […] • R: […] • Human CYP1A2 • Unique Assay ID: qHsaCID0015160 • Chromosome Location: 15:75045562-75047256 • Human CYP2B6 • F: […] • R: […] • Human CYP3A4 • F: […] • R: […]

Data set [1] concerns the target T1, CYP2C19 (Homo sapiens, UniProt P33261).
Data set [2] concerns the target T1, CYP2C19. Briefly: in vitro. The conditions noted are these: both, microsomes.
Data set [3] concerns the target T1, CYP2C19. As to the kind of experiment: CYP450 time-dependent inhibition, CYP2C19, pooled human liver microsomes. The following applies: Mephenytoin (2C19).
In data set [4] the test system is Sprague-Dawley rat plasma proteins. The conditions noted are these: 2.5 h, 2 µM, pH 7.4.
For data set [5], the system named is beagle dog plasma proteins. The following applies: 2.5 h, 2 µM, pH 7.4.
In data set [6] the test system is cynomolgus monkey plasma proteins. The following applies: 2.5 h, 2 µM, pH 7.4.
Data set [7] is described as follows: in vitro. The following applies: CD-1, mouse, plasma.
The nature of data set [8]: in vitro. The conditions noted are these: Sprague-Dawley, rat, plasma, pH 7.4.
Data set [9] in a line: in vitro. The conditions noted are these: beagle, dog, plasma, pH 7.4.
A short description of data set [10]: in vitro. The conditions noted are these: cynomolgus monkey, plasma, pH 7.4.

As usually defined, the inhibition is the change of the read-out against control, counted positive when it falls. A word on the IC50: it is the concentration at which inhibition is half-maximal. By fraction unbound is commonly meant free concentration divided by total concentration.

T1 sequence (P33261 whole entry): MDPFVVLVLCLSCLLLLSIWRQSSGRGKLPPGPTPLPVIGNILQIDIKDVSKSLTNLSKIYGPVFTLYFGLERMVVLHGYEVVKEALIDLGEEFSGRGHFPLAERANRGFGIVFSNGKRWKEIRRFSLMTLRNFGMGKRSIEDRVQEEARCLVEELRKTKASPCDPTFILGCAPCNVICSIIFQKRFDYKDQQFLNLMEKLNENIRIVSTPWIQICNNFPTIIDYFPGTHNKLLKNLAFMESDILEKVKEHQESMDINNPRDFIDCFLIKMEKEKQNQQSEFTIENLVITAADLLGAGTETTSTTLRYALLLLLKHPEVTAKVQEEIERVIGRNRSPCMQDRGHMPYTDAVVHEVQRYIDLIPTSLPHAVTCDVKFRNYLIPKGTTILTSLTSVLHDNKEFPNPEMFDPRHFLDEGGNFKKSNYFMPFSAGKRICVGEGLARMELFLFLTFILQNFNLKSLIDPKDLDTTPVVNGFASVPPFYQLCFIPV

With `COc1ccc2[nH]c([S+]([O-])Cc3ncc(C)c(OC)c3C)nc2c1` (stereo not drawn) [Omeprazole, omeprazole], in the data set with CYP1A2, the “Comments (mRNA induction)” value is given as “Induced as Expected”. For the same molecule, the “Comments (time-dependent inhibition)” value on CYP2C19 [1] is on record as “+TDI”. Also, the inhibition at 30 min, 50 µM on CYP2C19 [2] (pH 7.4, % Inhibition at 50 µM No PI + NADPH) is 92.9%; against CYP2C19 [2] (pH 7.4, % Inhibition at 50 µM No PI − NADPH), 93.1%; on CYP2C19 [2] (pH 7.4, % Inhibition at 50 µM PI + NADPH), 95.8%; against CYP2C19 [2] (pH 7.4, % Inhibition at 50 µM PI − NADPH), 90.7%. In addition, the IC50 at CYP2C19 [3] (IC50 (µM) No PI + NADPH, No PI + NADPH) was determined as 4.77 µM; on CYP2C19 [3] (IC50 (µM) No PI − NADPH, No PI − NADPH), 5.39 µM.

`CC(=O)CC(c1ccccc1)c1c(O)c2ccccc2oc1=O` (stereo not drawn) [Warfarin]: the “% Protein Free Mean ± SD” value is recorded as 0.7 ± 0.1% in [4], 3.1 ± 0.4% in [5] and 0.9 ± 0.1% in [6]. Also, the fraction remaining at 2.5 h, 2 µM stood at 108% in “in vitro [7]” (pH 7.4), 105% in “in vitro [8]” and 105% in the data set “in vitro [9]”. The fraction unbound at 2.5 h, 2 µM in “in vitro [7]” (pH 7.4, % Protein Free Mean ± SD) was determined as 0.04 ± 0.002; in “in vitro [7]” (pH 7.4, Fu (Unbound Fraction) Mean ± SD), 0.0398 ± 0.0016; in “in vitro [9]” it was 0.0305 ± 0.0036; in “in vitro [10]” it was 0.0086 ± 0.00116.
